Laboratory results: ChEMBL document CHEMBL4342499, “Novel Stapling by Lysine Tethering Provides Stable and Low Hemolytic Cationic Antimicrobial Peptides” (J Med Chem, 2020)

Columns and labels:
Staphylococcus aureus [1] = experiment: Antimicrobial activity against Staphylococcus aureus assessed as inhibition of microbial growth incubated for 16 hrs by microdilution method; format: functional
Escherichia coli [2] = experiment: Antimicrobial activity against Escherichia coli assessed as inhibition of microbial growth incubated for 16 hrs by microdilution method; format: functional
Listeria monocytogenes = experiment: Antimicrobial activity against Listeria monocytogenes assessed as inhibition of microbial growth incubated for 16 hrs by microdilution method; format: functional
Pseudomonas aeruginosa = experiment: Antimicrobial activity against Pseudomonas aeruginosa assessed as inhibition of microbial growth incubated for 16 hrs by microdilution method; format: functional
Escherichia coli [3] = test system: Escherichia coli
Staphylococcus aureus [4] = experiment: Antimicrobial activity against methicillin-resistant Staphylococcus aureus assessed as inhibition of microbial growth incubated for 16 hrs by microdilution method; format: functional

| Structure (SMILES) | MIC99.9 (Staphylococcus aureus [1]) | MIC99.9 (Escherichia coli [2]) | MIC99.9 (Listeria monocytogenes) | MIC99.9 (Pseudomonas aeruginosa) | MIC99.9 (Escherichia coli [3]) | MIC99.9 (Staphylococcus aureus [4]) |
| --- | --- | --- | --- | --- | --- | --- |
| CCN1CCN(C(=O)N[C@@H](C(=O)N[C@@H]2C(=O)N3C(C(=O)O)=C(CSc4nnnn4C)CS[C@H]23)c2ccc(O)cc2)C(=O)C1=O [CEFOPERAZONE] | 0.5 µg/mL | 0.125 µg/mL | 16 µg/mL | 2 µg/mL | >128 µg/mL | >128 µg/mL |
| CN[C@H](CC(C)C)C(=O)N[C@H]1C(=O)N[C@@H](CC(N)=O)C(=O)N[C@H]2C(=O)N[C@H]3C(=O)N[C@H](C(=O)N[C@H](C(=O)O)c4cc(O)cc(O)c4-c4cc3ccc4O)[C@H](O)c3ccc(c(Cl)c3)Oc3cc2cc(c3O[C@@H]2O[C@H](CO)[C@@H](O)[C@H](O)[C@H]2O[C@H]2C[C@](C)(N)[C@H](O)[C@H](C)O2)Oc2ccc(cc2Cl)[C@H]1O [VANCOMYCIN] | 2 µg/mL | >128 µg/mL | 1 µg/mL | >128 µg/mL | >128 µg/mL | 2 µg/mL |
